Patent US6136992A, “2-alkoxy estradiols and derivatives thereof” (The United States of America as represented by the …, priority 1998, dated 2000)
Read-outs that look alike come from different tables or passages of the source.

Assays:
Type in all cases: cell-based
[1] = test system: HOP-62 non-small-cell lung cancer cells; assay: NCI in vitro anticancer screen, HOP-62 non-small-cell lung cancer; settings: Homo sapiens
Excerpt: (§1) The effects of the analogs on cancer cell growth was investigated in the National Cancer Institute (NCI) Developmental Therapeutics Program's in vitro panel of approximately 55 cell lines (Grever et al., Seminars in Oncology 19:622 (1992), Alley et al., Cancer Research 48:589 (1988) and Montes et al., J. National Cancer Institute 83:757 (1991)). Representative results are listed in Table 1 for HOP-62 non-small-cell lung cancer cells, HCT-116 colon cancer cells, SF-539 central nervous system (CNS) cancer cells, UACC-62 melanoma cells, OVCAR ovarian cancer cells, SN12-C renal cancer cells, DU-145 prostate cancer cells, and MDA-MB-435 breast cancer cells.
(§2) ^a The cytotoxicity GI50 values are the concentrations

[2] = test system: OVCAR ovarian cancer cells; assay: NCI in vitro anticancer screen, OVCAR ovarian cancer; settings: Homo sapiens, read-out: cytotoxicity GI50, Ovarian OVCAR
Excerpt: as §1, §2

[3] = test system: MDA-MB-435 breast cancer cells; assay: NCI in vitro anticancer screen, MDA-MB-435 breast cancer; settings: Homo sapiens
Excerpt: The effects of the analogs on cancer cell growth was investigated in the National Cancer Institute (NCI) Developmental Therapeutics Program's in vitro panel of approximately 55 cell lines (Grever et al., Seminars in Oncology 19:622 (1992), Alley et al., Cancer Research 48:589 (1988) and Montes et al., J. National Cancer Institute 83:757 (1991)).

[4] = test system: all human cancer cell lines (approximately 55); assay: NCI in vitro anticancer screen, all cell lines
Excerpt: as §1
^b Mean graph midpoint for all human cancer cell lines (approximately

CCRF-CEM = assay: NCI screen, leukemia; settings: Homo sapiens, read-out: Log10 GI50, CCRF-CEM (converted)
K562 = assay: NCI screen, leukemia; settings: Homo sapiens, read-out: Log10 GI50, K562 (converted)
MOLT-4 = assay: NCI screen, leukemia; settings: Homo sapiens, read-out: Log10 GI50, MOLT-4 (converted)
SR = assay: NCI screen, leukemia; settings: Homo sapiens, read-out: Log10 GI50, SR (converted)
A549/ATCC = assay: NCI screen, non-small cell lung cancer; settings: Homo sapiens, read-out: Log10 GI50, A549/ATCC (converted)
EKVX = assay: NCI screen, non-small cell lung cancer; settings: Homo sapiens, read-out: Log10 GI50, EKVX (converted)
NCI-H23 = assay: NCI screen, non-small cell lung cancer; settings: Homo sapiens, read-out: Log10 GI50, NCI-H23 (converted)
NCI-H322M = assay: NCI screen, non-small cell lung cancer; settings: Homo sapiens, read-out: Log10 GI50, NCI-H322M (converted)
NCI-H460 = assay: NCI screen, non-small cell lung cancer; settings: Homo sapiens, read-out: Log10 GI50, NCI-H460 (converted)
NCIH-522 = assay: NCI screen, non-small cell lung cancer; settings: Homo sapiens, NCI-H522, read-out: Log10 GI50, NCIH-522 (converted)
HTC-15 = assay: NCI screen, colon cancer; settings: Homo sapiens, read-out: Log10 GI50, HTC-15 (converted)
SF-295 = assay: NCI screen, CNS cancer; settings: Homo sapiens, read-out: Log10 GI50, SF-295 (converted)
SNB-19 = assay: NCI screen, CNS cancer; settings: Homo sapiens, read-out: Log10 GI50, SNB-19 (converted)
SNB-75 = assay: NCI screen, CNS cancer; settings: Homo sapiens, read-out: Log10 GI50, SNB-75 (converted)
U251 = assay: NCI screen, CNS cancer; settings: Homo sapiens, U-251, read-out: Log10 GI50, U251 (converted)
LOX IMVI = assay: NCI screen, melanoma; settings: Homo sapiens, read-out: Log10 GI50, LOX IMVI (converted)
SK-MEL-5 = assay: NCI screen, melanoma; settings: Homo sapiens, read-out: Log10 GI50, SK-MEL-5 (converted)
OVCAR-8 = assay: NCI screen, ovarian cancer; settings: Homo sapiens, read-out: Log10 GI50, OVCAR-8 (converted)
ACHN = assay: NCI screen, renal cancer; settings: Homo sapiens, read-out: Log10 GI50, ACHN (converted)
UO-31 = assay: NCI screen, renal cancer; settings: Homo sapiens, read-out: Log10 GI50, UO-31 (converted)
MCF7 = assay: NCI screen, breast cancer; settings: Homo sapiens, read-out: Log10 GI50, MCF7 (converted)
MCF7/ADR-RES = assay: NCI screen, breast cancer; settings: Homo sapiens, read-out: Log10 GI50, MCF7/ADR-RES (converted)
HS 578T = assay: NCI screen, breast cancer; settings: Homo sapiens, read-out: Log10 GI50, HS 578T (converted)
MDA-N = assay: NCI screen, breast cancer; settings: Homo sapiens, read-out: Log10 GI50, MDA-N (converted)
BT-549 = assay: NCI screen, breast cancer; settings: Homo sapiens, read-out: Log10 GI50, BT-549 (converted)

C[C@]12CC[C@@H]3c4cc(OCC(F)(F)F)c(O)cc4C(=NO)C[C@H]3[C@@H]1CC[C@@H]2O [Compound 12, 2-(2',2', 2'-Trifluoroethoxy)-6-Hydroximino-Estra-1,3,5(10)-Triene-3,17β-Diol]
GI50 ([1]; HOP-62, read-out: cytotoxicity GI50, Lung HOP-62): < 10 nM | GI50 ([1]; HOP-62, Non-Small Cell Lung Cancer, read-out: Log10 GI50, HOP-62 (converted)): < 10 nM | GI50 [2]: < 10 nM | GI50 ([3]; MDA-MB-435, read-out: cytotoxicity GI50, Breast MDA-MB-435): < 10 nM | GI50 ([3]; MDA-MB-435, Breast Cancer, read-out: Log10 GI50, MDA-MB-435 (converted)): < 10 nM | GI50 ([4]; 10^-8 molar is the lowest concentration normally investigated, read-out: GI50): < 10 nM | GI50 ([4]; approximately 55 cell lines, read-out: MGM (mean graph midpoint for all human cancer cell lines), GI50): 10 nM | GI50 ([4]; average of all cell lines of Table 2, read-out: Log10 GI50, Average (all cell lines) (converted)): < 10 nM | GI50 (CCRF-CEM): < 10 nM | GI50 (K562): < 10 nM | GI50 (MOLT-4): < 10 nM | GI50 (SR): < 10 nM | GI50 (A549/ATCC): < 10 nM | GI50 (EKVX): < 10 nM | GI50 (NCI-H23): < 10 nM | GI50 (NCI-H322M): < 10 nM | GI50 (NCI-H460): < 10 nM | GI50 (NCIH-522): < 10 nM | GI50 (HTC-15): < 10 nM | GI50 (SF-295): < 10 nM | GI50 (SNB-19): < 10 nM | GI50 (SNB-75): < 10 nM | GI50 (U251): < 10 nM | GI50 (LOX IMVI): < 10 nM | GI50 (SK-MEL-5): < 10 nM | GI50 (OVCAR-8): < 10 nM | GI50 (ACHN): < 10 nM | GI50 (UO-31): < 10 nM | GI50 (MCF7): < 10 nM | GI50 (MCF7/ADR-RES): < 10 nM | GI50 (HS 578T): < 10 nM | GI50 (MDA-N): < 10 nM | GI50 (BT-549): < 10 nM
